From ChEMBL document CHEMBL1201862, “PubChem BioAssay data set” (2004)
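Each compound was tested at five concentrations against cells in 96-well plates for 48 hours. Abbreviation: GI50, concentration required for 50% inhibition of growth.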 The source made the active and inactive calls. Cut-off read from the data, not from the text of the source: active = GI50 up to about 1.1 µM and inactive = higher.

How the values were obtained:
Assay in all cases: NCI-60 cell line screen, 48 h
786-0 = test system: 786-0
A498 = test system: A498
A549 = test system: A549
ACHN = test system: ACHN
BT-549 = test system: BT-549
CAKI-1 = test system: CAKI-1
CCRF-CEM = test system: CCRF-CEM
COLO 205 = test system: COLO 205
DU-145 = test system: DU-145
EKVX = test system: EKVX
HCC 2998 = test system: HCC 2998
HCT-116 = test system: HCT-116
HCT-15 = test system: HCT-15
HL-60 = test system: HL-60
HOP-62 = test system: HOP-62
HOP-92 = test system: HOP-92
HT-29 = test system: HT-29
Hs-578T = test system: Hs-578T
IGROV-1 = test system: IGROV-1
K562 = test system: K562
KM12 = test system: KM12
LOX IMVI = test system: LOX IMVI
M14 = test system: M14
MCF7 = test system: MCF7
MDA-MB-231 = test system: MDA-MB-231
MDA-MB-435 = test system: MDA-MB-435
MDA-N = test system: MDA-N
MOLT-4 = test system: MOLT-4
Malme-3M = test system: Malme-3M
NCI-H226 = test system: NCI-H226
NCI-H23 = test system: NCI-H23
NCI-H460 = test system: NCI-H460
NCI-H522 = test system: NCI-H522
NCI/ADR-RES = test system: NCI/ADR-RES
OVCAR-3 = test system: OVCAR-3
OVCAR-4 = test system: OVCAR-4
OVCAR-5 = test system: OVCAR-5
OVCAR-8 = test system: OVCAR-8
PC-3 = test system: PC-3
RPMI-8226 = test system: RPMI-8226
SF-295 = test system: SF-295
SF-539 = test system: SF-539
SK-MEL-28 = test system: SK-MEL-28
SK-MEL-2 = test system: SK-MEL-2
SK-MEL-5 = test system: SK-MEL-5
SK-OV-3 = test system: SK-OV-3
SN12C = test system: SN12C
SNB-19 = test system: SNB-19
SR = test system: SR
SW-620 = test system: SW-620
TK-10 = test system: TK-10
U-251 = test system: U-251
UACC-257 = test system: UACC-257
UACC-62 = test system: UACC-62
UO-31 = test system: UO-31

## CCOC(=O)N1c2c(c3ccccc3n2C(=O)OCC)C(=O)C(OC)N1C(=O)OCC (stereo not given)
786-0
  GI50: 43.2 µM (inactive)
A498
  GI50: 25.4 µM (inactive)
A549
  GI50: 32.7 µM (inactive)
ACHN
  GI50: 25.6 µM (inactive)
BT-549
  GI50: 60.7 µM (inactive)
CAKI-1
  GI50: 28.8 µM (inactive)
CCRF-CEM
  GI50: 19.5 µM (inactive)
COLO 205
  GI50: 15.5 µM (inactive)
DU-145
  GI50: 61.9 µM (inactive)
EKVX
  GI50: 22 µM (inactive)
HCC 2998
  GI50: 33.3 µM (inactive)
HCT-116
  GI50: 26.5 µM (inactive)
HCT-15
  GI50: 27.7 µM
HL-60
  GI50: 17.2 µM (inactive)
HOP-62
  GI50: 22 µM (inactive)
HOP-92
  GI50: 31.3 µM (inactive)
HT-29
  GI50: 30.5 µM (inactive)
Hs-578T
  GI50: 22.5 µM (inactive)
IGROV-1
  GI50: 26.5 µM (inactive)
K562
  GI50: 21.1 µM (inactive)
KM12
  GI50: 17.9 µM (inactive)
LOX IMVI
  GI50: 18.1 µM (inactive)
M14
  GI50: 38.4 µM (inactive)
MCF7
  GI50: 34.3 µM (inactive)
MDA-MB-231
  GI50: 22.9 µM (inactive)
MDA-MB-435
  GI50: 32.1 µM (inactive)
MDA-N
  GI50: 33.2 µM (inactive)
MOLT-4
  GI50: 21.6 µM (inactive)
Malme-3M
  GI50: 31.9 µM (inactive)
NCI-H226
  GI50: 36.1 µM (inactive)
NCI-H23
  GI50: 44.3 µM (inactive)
NCI-H460
  GI50: 36.1 µM (inactive)
NCI-H522
  GI50: 13.3 µM (inactive)
NCI/ADR-RES
  GI50: 22.9 µM (inactive)
OVCAR-3
  GI50: 30.2 µM (inactive)
OVCAR-4
  GI50: 41.9 µM (inactive)
OVCAR-5
  GI50: 42 µM (inactive)
OVCAR-8
  GI50: 21.7 µM (inactive)
PC-3
  GI50: 21.6 µM (inactive)
RPMI-8226
  GI50: 23.9 µM (inactive)
SF-295
  GI50: 19.6 µM (inactive)
SF-539
  GI50: 24.6 µM (inactive)
SK-MEL-28
  GI50: 24.2 µM (inactive)
SK-MEL-2
  GI50: 16 µM (inactive)
SK-MEL-5
  GI50: 21.8 µM (inactive)
SK-OV-3
  GI50: 28.4 µM (inactive)
SN12C
  GI50: 28.8 µM (inactive)
SNB-19
  GI50: 41.4 µM (inactive)
SR
  GI50: 16.9 µM (inactive)
SW-620
  GI50: 31.7 µM (inactive)
TK-10
  GI50: 50.5 µM (inactive)
U-251
  GI50: 27.1 µM (inactive)
UACC-257
  GI50: 29.4 µM (inactive)
UACC-62
  GI50: 40.1 µM (inactive)
UO-31
  GI50: 33.7 µM (inactive)
